Calls of active or inactive are those of the source.
Columns and labels:
[1] = target: T1, DNA repair and recombination protein RAD54-like (Homo sapiens, UniProt Q92698); assay: inhibitors of human RAD54 branch migration, confirmation, biochemical, fluorescence, cherry-picked samples, dose series (AID 651657); format: functional
T1 sequence (Q92698 whole entry): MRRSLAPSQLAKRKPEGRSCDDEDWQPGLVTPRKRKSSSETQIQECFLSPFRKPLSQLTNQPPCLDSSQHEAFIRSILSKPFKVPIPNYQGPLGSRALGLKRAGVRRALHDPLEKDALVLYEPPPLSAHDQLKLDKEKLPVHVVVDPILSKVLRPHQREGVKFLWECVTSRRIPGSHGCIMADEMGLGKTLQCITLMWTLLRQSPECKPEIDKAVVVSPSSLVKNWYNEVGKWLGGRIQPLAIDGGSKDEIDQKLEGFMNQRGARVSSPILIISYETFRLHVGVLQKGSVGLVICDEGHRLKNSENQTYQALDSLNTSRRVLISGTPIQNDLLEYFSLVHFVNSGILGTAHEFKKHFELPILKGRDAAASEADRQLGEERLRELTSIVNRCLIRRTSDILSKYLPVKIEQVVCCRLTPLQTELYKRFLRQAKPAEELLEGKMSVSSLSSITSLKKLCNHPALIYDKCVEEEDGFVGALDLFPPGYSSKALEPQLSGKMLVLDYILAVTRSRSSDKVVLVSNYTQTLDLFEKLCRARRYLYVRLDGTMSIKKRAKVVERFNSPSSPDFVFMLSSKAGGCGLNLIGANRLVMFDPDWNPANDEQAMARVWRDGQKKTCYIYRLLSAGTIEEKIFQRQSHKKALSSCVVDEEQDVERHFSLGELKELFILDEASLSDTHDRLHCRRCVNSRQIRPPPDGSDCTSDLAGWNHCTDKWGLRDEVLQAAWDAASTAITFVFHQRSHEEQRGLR

[2] = growth suppression of PTEN-null colon cells, dose response, cell-based, HCT116 PTEN knockout (AID 1047); format: functional;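 further: HCT116 colon tumor cells with PTEN knocked out; cells exposed to compound for 60 hours before readout; potency for loss of cell viability measured by luminescence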
[3] = growth suppression of beta-catenin-knockout colon cells, dose response, cell-based, HCT116, human colon tumor (AID 1045); format: functional;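 further: HCT116 colon tumor cells with beta catenin knocked out; cells exposed to compound for 60 hours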
[4] = target: T2, Microphthalmia-associated transcription factor (Homo sapiens, UniProt O75030); assay: TRPM1 promoter luciferase signal decrease, dose response, MITF inhibitor project, cell-based, SK-MEL-5, cherry-picked, set 3 (AID 493073); format: functional
T2 sequence (O75030 whole entry): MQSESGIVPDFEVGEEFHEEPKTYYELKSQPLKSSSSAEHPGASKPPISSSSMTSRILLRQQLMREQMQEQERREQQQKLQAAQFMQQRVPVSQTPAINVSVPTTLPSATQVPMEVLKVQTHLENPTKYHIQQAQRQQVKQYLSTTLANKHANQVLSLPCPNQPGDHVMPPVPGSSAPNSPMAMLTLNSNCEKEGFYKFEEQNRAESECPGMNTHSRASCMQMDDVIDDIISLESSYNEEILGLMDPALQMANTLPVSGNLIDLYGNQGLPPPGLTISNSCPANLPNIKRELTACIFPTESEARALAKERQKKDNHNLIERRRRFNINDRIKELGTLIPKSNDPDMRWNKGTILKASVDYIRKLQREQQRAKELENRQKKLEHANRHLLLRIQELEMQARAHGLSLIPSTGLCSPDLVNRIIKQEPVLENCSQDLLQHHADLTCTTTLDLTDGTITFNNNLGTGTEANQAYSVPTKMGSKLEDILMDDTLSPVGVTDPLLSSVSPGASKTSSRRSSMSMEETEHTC

[5] = target: T3, Protein RecA (Mycobacterium tuberculosis, UniProt P9WHJ3); assay: Fluorescence Cell-Free Homogeneous Dose Retest to Identify Inhibitors of RecA-Intein Splicing Activity. [Related pubchem assays (depositor defined):AID2097, AID2223, AID489010, AID492950]; format: functional
T3 sequence (P9WHJ3 whole entry): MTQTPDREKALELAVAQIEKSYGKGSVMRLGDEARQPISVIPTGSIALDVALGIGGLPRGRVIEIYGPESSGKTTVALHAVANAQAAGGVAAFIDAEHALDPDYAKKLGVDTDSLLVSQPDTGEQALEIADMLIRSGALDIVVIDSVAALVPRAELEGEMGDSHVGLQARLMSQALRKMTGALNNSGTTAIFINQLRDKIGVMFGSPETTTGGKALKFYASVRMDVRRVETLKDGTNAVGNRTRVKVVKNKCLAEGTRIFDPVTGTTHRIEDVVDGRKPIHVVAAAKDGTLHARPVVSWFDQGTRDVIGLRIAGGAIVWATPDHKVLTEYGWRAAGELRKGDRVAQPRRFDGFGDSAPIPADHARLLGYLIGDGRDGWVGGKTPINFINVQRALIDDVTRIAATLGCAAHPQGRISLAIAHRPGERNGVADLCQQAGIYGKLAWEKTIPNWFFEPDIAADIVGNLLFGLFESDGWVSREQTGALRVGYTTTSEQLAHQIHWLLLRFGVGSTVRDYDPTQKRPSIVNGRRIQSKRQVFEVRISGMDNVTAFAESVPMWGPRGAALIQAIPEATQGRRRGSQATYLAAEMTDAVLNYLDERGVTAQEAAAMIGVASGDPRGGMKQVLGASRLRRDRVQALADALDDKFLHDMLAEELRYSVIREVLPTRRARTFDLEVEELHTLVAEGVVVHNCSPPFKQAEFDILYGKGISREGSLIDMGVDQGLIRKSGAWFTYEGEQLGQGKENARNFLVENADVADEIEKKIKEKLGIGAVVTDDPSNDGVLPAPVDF

[6] = target: T4, Replicative DNA helicase DnaB (Mycobacterium tuberculosis, UniProt P9WMR3); assay: DnaB intein splicing inhibitors, dose response, biochemical, cell-free fluorescence (AID 449749); format: functional
T4 sequence (P9WMR3 whole entry): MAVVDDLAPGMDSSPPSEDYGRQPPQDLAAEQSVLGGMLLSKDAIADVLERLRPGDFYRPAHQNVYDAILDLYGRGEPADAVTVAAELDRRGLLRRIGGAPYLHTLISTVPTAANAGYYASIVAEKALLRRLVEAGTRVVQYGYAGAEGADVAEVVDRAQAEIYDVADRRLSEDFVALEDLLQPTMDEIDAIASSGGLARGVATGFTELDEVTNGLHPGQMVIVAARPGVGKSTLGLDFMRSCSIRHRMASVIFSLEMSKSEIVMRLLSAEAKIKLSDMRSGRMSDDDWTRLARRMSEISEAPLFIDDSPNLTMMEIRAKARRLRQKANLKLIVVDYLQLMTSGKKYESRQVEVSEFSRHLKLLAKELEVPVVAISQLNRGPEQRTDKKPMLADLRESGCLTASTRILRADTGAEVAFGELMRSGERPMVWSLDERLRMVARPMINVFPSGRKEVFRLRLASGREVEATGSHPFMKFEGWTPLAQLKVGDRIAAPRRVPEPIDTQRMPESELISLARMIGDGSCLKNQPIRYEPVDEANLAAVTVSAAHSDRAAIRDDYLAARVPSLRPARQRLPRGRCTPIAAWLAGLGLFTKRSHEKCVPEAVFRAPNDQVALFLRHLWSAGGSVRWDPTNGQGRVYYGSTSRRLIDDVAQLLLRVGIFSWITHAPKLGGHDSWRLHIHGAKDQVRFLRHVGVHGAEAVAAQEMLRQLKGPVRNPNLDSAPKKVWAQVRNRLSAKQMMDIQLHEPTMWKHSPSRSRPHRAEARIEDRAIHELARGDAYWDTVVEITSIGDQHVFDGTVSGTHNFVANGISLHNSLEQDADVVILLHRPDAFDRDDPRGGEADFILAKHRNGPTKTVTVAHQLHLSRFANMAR

[7] = HEK293 cell cytotoxicity, dose response, cytotoxicity control, plate reader, cherry-picked samples (AID 743446); format: functional, cell-based
[8] = cytotoxicity toward DRD oncogenic fibroblasts, dose response, cell-based, non-viral oncogenic, luminescence (AID 1934); format: functional; settings: Homo sapiens
[9] = tested on: BJ; assay: cells; format: functional, cell-based; settings: Homo sapiens
[10] = MC4R antagonists, dose response, counter-screen for LGR2 antagonist project, cell-based, plate reader, cherry pick (AID 743444); format: functional;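 further: transfected HEK 293 cells stimulated with alpha-MSH peptide; potency of inhibitors of the alpha-MSH evoked signal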
[11] = LGR2 antagonists, dose response, cell-based, HEK293, CRE-luciferase reporter, cherry pick, set 2 (AID 743343); format: functional;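 further: transfected cells were stimulated with diluted bursicon conditioned medium after compound addition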
[12] = inhibitors of SNCA 5'UTR-driven reporter translation, confirmation, H4 neuroglioma cells, luminescence (AID 1988); format: functional, cell-based
[13] = HepG2 cell cytotoxicity, dose response, cytotoxicity control, plate reader, cherry-pick, antagonist series (AID 743416); format: functional, cell-based
[14] = A549 cell cytotoxicity, dose response, cytotoxicity control, plate reader, cherry-pick, antagonist series (AID 743412); format: functional, cell-based
[15] = target: Luciferin 4-monooxygenase (Photinus pyralis, UniProt P08659); assay: firefly luciferase enzyme inhibitors, dose response, biochemical, luminescence (AID 1891)
[16] = Luminescence Cell-Based Dose Response HTS to Identify Inhibitors of 5'UTR Stem-Loop Driven Prion Protein mRNA Translation in H4 Neuroglioblastoma Cells. [Related pubchem assays: 1827 (Project Summary), 1813 (Primary HTS)]; format: functional
[17] = tested on: BJ; assay: cytotoxicity toward BJ-TERT-LT-ST fibroblasts, dose response, cell-based, RAS-independent, luminescence (AID 1935); format: functional; settings: Homo sapiens;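 further: BJ fibroblasts immortalized with TERT plus LT and ST oncogenes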
[18] = Luminescence Cell-Based Dose Confirmation HTS to Identify Inhibitors of Platelet Dense Granule Release. [Related pubchem assays: 1663 (Primary HTS), 1678 (Summary of Project)]; format: functional
[19] = tested on: BJ; assay: cytotoxicity toward BJ-TERT fibroblasts, dose response, cell-based, RAS-independent, luminescence (AID 1933); format: functional; settings: Homo sapiens
[20] = target: T5, Sentrin-specific protease 8 (Homo sapiens, UniProt Q96LD8); format: functional
T5 sequence (Q96LD8 whole entry): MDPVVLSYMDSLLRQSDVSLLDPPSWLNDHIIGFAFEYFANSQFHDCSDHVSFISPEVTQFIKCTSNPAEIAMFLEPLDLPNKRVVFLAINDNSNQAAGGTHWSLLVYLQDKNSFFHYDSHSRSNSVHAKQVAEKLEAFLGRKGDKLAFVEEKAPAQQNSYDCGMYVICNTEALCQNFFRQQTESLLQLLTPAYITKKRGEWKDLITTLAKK

[21] = target: T5, Sentrin-specific protease 8; format: functional; remark: listed apart in the source

Sequence of Luciferin 4-monooxygenase (P08659 whole entry): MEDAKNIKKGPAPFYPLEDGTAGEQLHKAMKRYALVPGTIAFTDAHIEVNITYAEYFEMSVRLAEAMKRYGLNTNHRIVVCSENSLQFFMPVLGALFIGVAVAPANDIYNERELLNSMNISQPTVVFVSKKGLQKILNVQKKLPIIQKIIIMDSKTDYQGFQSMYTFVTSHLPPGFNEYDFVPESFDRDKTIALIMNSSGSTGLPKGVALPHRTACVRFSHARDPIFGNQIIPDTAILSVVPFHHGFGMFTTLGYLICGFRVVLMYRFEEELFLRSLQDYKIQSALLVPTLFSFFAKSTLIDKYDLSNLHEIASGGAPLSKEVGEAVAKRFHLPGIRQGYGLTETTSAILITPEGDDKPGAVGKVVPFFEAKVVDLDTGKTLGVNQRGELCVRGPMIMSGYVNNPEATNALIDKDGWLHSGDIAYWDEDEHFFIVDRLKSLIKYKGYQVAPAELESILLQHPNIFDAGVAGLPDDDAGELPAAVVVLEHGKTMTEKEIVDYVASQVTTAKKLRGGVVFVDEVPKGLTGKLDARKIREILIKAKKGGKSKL

Compound: CCN(CC)CCCNc1nc2cc(OC)c(OC)cc2c2nc(-c3cccnc3)nn12
- AC50 [1]: 2.15 µM (active)
- EC50 [2]: 8.62 µM (active)
- EC50 [3]: 7.33 µM (active)

Compound: Cn1c(=O)c([N+](=O)[O-])c(-n2ccnc2)c2ccccc21
- AC50 [4]: 6.6 µM (active)
- EC50 [5]: 6.43 µM (active)
- AC50 [6]: 6.67 µM (active)

Compound: Cc1cccc(-c2nc3cc(NC(=O)C4CCCO4)ccc3o2)c1 (stereo not given)
- AC50 [7]: 26.9 µM (active)
- EC50 [8]: 17 µM (active)
- EC50 [9]: 19.8 µM (active)
- AC50 [10]: 6.37 µM (active)
- AC50 [11]: 9.84 µM (active)
- EC50 [12]: 9.78 µM (active)
- AC50 [13]: 33.8 µM (active)
- AC50 [14]: 43.3 µM (active)
- EC50 [15]: 1.51 µM (active)
- EC50 [16]: 9.83 µM (active)
- EC50 [17]: > 150 µM (not active)
- EC50 [18]: 1.57 µM (active)
- EC50 [19]: 23.3 µM (active)

Compound: Cn1c2ccc(F)cc2c2ncn(CCCN(CCO)CCO)c(=O)c21
- AC50 [1]: 28 µM (active)

Compound: O=[N+]([O-])c1ccc(C=NN2CCOCC2)s1
- IC50 [20]: 31.9 µM (active)
- IC50 [21]: 49 µM (active)

Compound: C[C@@H]1CN([C@H](C)CO)C(=O)c2cccc(NC(=O)Nc3ccc(C(F)(F)F)cc3)c2O[C@@H]1CN(C)CC1CCCCC1
- AC50 [7]: 14 µM (active)
- AC50 [10]: 7.5 µM (active)
- AC50 [11]: 21.7 µM (active)
- AC50 [13]: 9.17 µM (active)
- AC50 [14]: 7.8 µM (active)

Compound: C[C@@H]1CN([C@H](C)CO)C(=O)Cc2cc(NC(=O)CCC(F)(F)F)ccc2O[C@@H]1CN(C)CC1CCCCC1
- AC50 [7]: > 52 µM (inactive)
- AC50 [13]: > 52 µM (inactive)
- AC50 [14]: 47.9 µM (active)
